The source of these data is patent US10695337B2, “Piperidin-4-yl azetidine derivatives as JAK1 inhibitors” (Incyte Corporation, priority 2010, dated 2020).

Molecules are shown by their SMILES.

For this assay, the target named is human JAK1 (a.a. 837-1142). Briefly: In vitro JAK kinase assay (HTRF, phosphorylation of a biotinylated peptide), JAK1. It counts as biochemical. Particulars: measured at 1 mM ATP; JAK2 IC50 / JAK1 IC50. In a few lines: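 N-terminally His-tagged catalytic domains, baculovirus-expressed in insect cells and purified, were used as enzyme. Reactions ran 1 hr at room temperature and were stopped with a mix of 45 mM EDTA, 300 nM SA-APC and 6 nM Eu-Py20. The HTRF signal was read after 40 min of antibody binding.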
Background: Time-resolved FRET reads energy transfer from a long-lived donor to a nearby acceptor.
As to `N#CCC1(n2cc(-c3c(F)cnc4[nH]ccc34)cn2)CN(C2CCN(C(=O)c3cc(C(F)(F)F)ncc3Cl)CC2)C1` [Example 326, {1-{1-[5-chloro-2-(trifluoromethyl)isonicotinoyl]piperidin-4-yl}-3-[4-(5-fluoro-1H-pyrrolo[2,3-b]pyridin-4-yl)-1H-pyrazol-1-yl]azetidin-3-yl}acetonitrile], the “IC50 Ratio JAK2/JAK1” value was 1.7.
The value for `N#CCC1(n2cc(-c3c(F)cnc4[nH]ccc34)cn2)CN(C2CCN(C(=O)C3CCC(F)(F)CC3)CC2)C1` [Example 327, {1-{1-[(4,4-difluorocyclohexyl)carbonyl]piperidin-4-yl}-3-[4-(5-fluoro-1H-pyrrolo[2,3-b]pyridine-4-yl)-1H-pyrazol-1-yl]azetidin-3-yl}acetonitrile] was 4.1.
In the case of `N#CCC1(n2cc(-c3c(F)cnc4[nH]ccc34)cn2)CN(C2CCN(C(=O)Nc3ncccc3C(F)(F)F)CC2)C1` [Example 329, 4-{3-(cyanomethyl)-3-[4-(5-fluoro-1H-pyrrolo[2,3-b]pyridin-4-yl)-1H-pyrazol-1-yl]azetidin-1-yl}-N-[3-(trifluoromethyl)pyridin-2-yl]piperidine-1-carboxamide], the “IC50 Ratio JAK2/JAK1” value is 4.5.
The value for `N#CCC1(n2cc(-c3c(F)cnc4[nH]ccc34)cn2)CN(C2CCN(C(=O)Nc3cnccc3C(F)(F)F)CC2)C1` [Example 330, 4-{3-(cyanomethyl)-3-[4-(5-fluoro-1H-pyrrolo[2,3-b]pyridin-4-yl)-1H-pyrazol-1-yl]azetidin-1-yl}-N-[4-(trifluoromethyl)pyridin-3-yl]piperidine-1-carboxamide] was 6.7.
With `N#CCC1(n2cc(-c3c(C#N)cnc4[nH]ccc34)cn2)CN(C2CCN(C(=O)c3cc(F)cc(C#N)c3)CC2)C1` [Example 333, 4-{1-[1-[1-(3-cyano-5-fluorobenzoyl)piperidin-4-yl]-3-(cyanomethyl)azetidin-3-yl]-1H-pyrazol-4-yl}-1H-pyrrolo[2,3-b]pyridine-5-carbonitrile] the figure was 8.8; with `N#CCC1(n2cc(-c3c(C#N)cnc4[nH]ccc34)cn2)CN(C2CCN(C(=O)c3ccc(C#N)c(F)c3)CC2)C1` [Example 334, 4-{1-[1-[1-(4-cyano-3-fluorobenzoyl)piperidin-4-yl]-3-(cyanomethyl)azetidin-3-yl]-1H-pyrazol-4-yl}-1H-pyrrolo[2,3-b]pyridine-5-carbonitrile], 4.3; with `N#CCC1(n2cc(-c3c(C#N)cnc4[nH]ccc34)cn2)CN(C2CCN(C(=O)c3cc(Br)ccc3Br)CC2)C1` [Example 335], 2.4.
As for `N#CCC1(n2cc(-c3c(C#N)cnc4[nH]ccc34)cn2)CN(C2CCN(C(=O)c3cc(Br)cc(Br)c3)CC2)C1` [Example 336], the “IC50 Ratio JAK2/JAK1” value is reported as 2.9.
With `N#CCC1(n2cc(-c3c(C#N)cnc4[nH]ccc34)cn2)CN(C2CCN(C(=O)c3cc(C#N)ccc3C#N)CC2)C1` [Example 337, 2-[(4-{3-(cyanomethyl)-3-[4-(5-cyano-1H-pyrrolo[2,3-b]pyridin-4-yl)-1H-pyrazol-1-yl]azetidin-1-yl}piperidin-1-yl)carbonyl]terephthalonitrile] the figure was 6.0.
Take `N#CCC1(n2cc(-c3c(C#N)cnc4[nH]ccc34)cn2)CN(C2CCN(C(=O)c3cc(C#N)cc(C#N)c3)CC2)C1` [Example 338, 5-[(4-{3-(cyanomethyl)-3-[4-(5-cyano-1H-pyrrolo[2,3-b]pyridin-4-yl)-1H-pyrazol-1-yl]azetidin-1-yl}piperidin-1-yl)carbonyl]isophthalonitrile]: the “IC50 Ratio JAK2/JAK1” value came out at 7.4.
On to `N#CCC1(n2cc(-c3c(C#N)cnc4[nH]ccc34)cn2)CN(C2CCN(C(=O)c3c(F)cc(C#N)cc3F)CC2)C1` [Example 340, 4-{1-[1-[1-(4-cyano-2,6-difluorobenzoyl)piperidin-4-yl]-3-(cyanomethyl)azetidin-3-yl]-1H-pyrazol-4-yl}-1H-pyrrolo[2,3-b]pyridine-5-carbonitrile], for which the “IC50 Ratio JAK2/JAK1” value was 1.4.
With `N#CCC1(n2cc(-c3c(C#N)cnc4[nH]ccc34)cn2)CN(C2CCN(C(=O)c3cc(C(F)(F)F)ncc3Cl)CC2)C1` [Example 341, 4-{1-[1-{1-[5-chloro-2-(trifluoromethyl)isonicotinoyl]piperidin-4-yl}-3-(cyanomethyl)azetidin-3-yl]-1H-pyrazol-4-yl}-1H-pyrrolo[2,3-b]pyridine-5-carbonitrile] the figure was 3.2.
With `N#CCC1(n2cc(-c3ncnc4[nH]ccc34)cn2)CN(C2CCN(C(=O)c3cc(C(F)(F)F)ncc3Cl)CC2)C1` [Example 342, {1-{1-[5-Chloro-2-(trifluoromethyl)isonicotinoyl]piperidin-4-yl}-3-[4-(7H-pyrrolo[2,3-d]pyrimidin-4-yl)-1H-pyrazol-1-yl]azetidin-3-yl}acetonitrile] the figure was 5.7.
As for `N#CCC1(n2cc(-c3ncnc4[nH]ccc34)cn2)CN(C2CCN(C(=O)c3cc(C(F)(F)F)ncc3F)CC2)C1` [Example 343, {1-{1-[5-Fluoro-2-(trifluoromethyl)isonicotinoyl]piperidin-4-yl}-3[4-(7H-pyrrolo[2,3-d]pyrimidin-4-yl)-1H-pyrazol-1-yl]azetidin-3-yl}acetonitrile], the “IC50 Ratio JAK2/JAK1” value was determined as 5.5.
With `N#CCC1(n2ccc(-c3ncnc4[nH]ccc34)c2)CN(C2CCN(C(=O)c3nc(C(F)(F)F)cs3)CC2)C1` [Example 346, [3-[3-(7H-Pyrrolo[2,3-d]pyrimidin-4-yl)-1H-pyrrol-1-yl]-1-(1-{[4-(trifluoromethyl)-1,3-thiazol-2-yl]carbonyl}piperidin-4-yl)azetidin-3-yl]acetonitrile], the “IC50 Ratio JAK2/JAK1” value came out at 5.9.
With `N#CCC1(n2ccc(-c3ncnc4[nH]ccc34)c2)CN(C2CCN(C(=O)c3cnc(C(F)(F)F)cn3)CC2)C1` [Example 347, [3-[3-(7H-Pyrrolo[2,3-d]pyrimidin-4-yl)-1H-pyrrol-1-yl]-1-(1-{[5-(trifluoromethyl)pyrazin-2-yl]carbonyl}piperidin-4-yl)azetidin-3-yl]acetonitrile] the figure was 2.7; with `CS(=O)(=O)N1CCC(N2CC(CC#N)(n3ccc(-c4ncnc5[nH]ccc45)c3)C2)CC1` [Example 348, {1-[1-(Methylsulfonyl)piperidin-4-yl]-3-[3-(7H-pyrrolo[2,3-d]pyrimidin-4-yl)-1H-pyrrol-1-yl]azetidin-3-yl}acetonitrile], 3.2.
With `N#CCC1(n2cc(-c3ccnc4[nH]ccc34)cn2)CN(C2CCN(C(=O)c3nc(C(F)(F)F)cs3)CC2)C1` [Example 350, [3-[4-(1H-Pyrrolo[2,3-b]pyridin-4-yl)-1H-pyrazol-1-yl]-1-(1-{[4-(trifluoromethyl)-1,3-thiazol-2-yl]carbonyl}piperidin-4-yl)azetidin-3-yl]acetonitrile] the figure was 15.0.
The value for `CS(=O)(=O)N1CCC(N2CC(CC#N)(n3cc(-c4ccnc5[nH]ccc45)cn3)C2)CC1` [Example 351, {1-[1-(Methylsulfonyl)piperidin-4-yl]-3-[4-(1H-pyrrolo[2,3-b]pyridin-4-yl)-1H-pyrazol-1-yl]azetidin-3-yl}acetonitrile] was 3.8; that for `N#CCC1(n2cc(-c3c(F)cnc4[nH]ccc34)cn2)CN(C2CCN(C(=O)c3ccnc(C(F)(F)F)n3)CC2)C1` [Example 353, [3-[4-(5-Fluoro-1H-pyrrolo[2,3-b]pyridin-4-yl)-1H-pyrazol-1-yl]-1-(1-{[2-(trifluoromethyl)pyrimidin-4-yl]carbonyl}piperidin-4-yl)azetidin-3-yl]acetonitrile] was 5.0; that for `N#CCC1(n2cc(-c3c(F)cnc4[nH]ccc34)cn2)CN(C2CCN(C(=O)c3cnc(C(F)(F)F)cn3)CC2)C1` [Example 354, [3-[4-(5-Fluoro-1H-pyrrolo[2,3-b]pyridin-4-yl)-1H-pyrazol-1-yl]-1-(1-{[5-(trifluoromethyl)pyrazin-2-yl]carbonyl}piperidin-4-yl)azetidin-3-yl]acetonitrile] was 2.1.
In the case of `CS(=O)(=O)N1CCC(N2CC(CC#N)(n3cc(-c4c(F)cnc5[nH]ccc45)cn3)C2)CC1` [Example 355, {3-[4-(5-Fluoro-1H-pyrrolo[2,3-b]pyridin-4-yl)-1Hpyrazol-1-yl]-1-[1-(methylsulfonyl)piperidin-4-yl]azetidin-3-yl}acetonitrile], the “IC50 Ratio JAK2/JAK1” value is 3.1.
With `N#CCC1(n2cc(-c3c(C#N)cnc4[nH]ccc34)cn2)CN(C2CCN(C(=O)c3cc(C(F)(F)F)ncc3F)CC2)C1` [Example 356, 4-[1-(3-(Cyanomethyl)-1-{1-[5-fluoro-2-(trifluoromethyl)isonicotinoyl]piperidin-4-yl}azetidin-3-yl)-1H-pyrazol-4-yl]-1H-pyrrolo[2,3-b]pyridine-5-carbonitrile] the figure was 5.8; with `CS(=O)(=O)N1CCC(N2CC(CC#N)(n3cc(-c4c(C#N)cnc5[nH]ccc45)cn3)C2)CC1` [Example 357, 4-(1-{3-(Cyanomethyl)-1-[1-(methylsulfonyl)piperidin-4-yl]azetidin-3-yl}-1H-pyrazol-4-yl)-1H-pyrrolo[2,3-b]pyridine-5-carbonitrile], 3.8; with `CN(C)Cc1cc(C(=O)N2CCC(N3CC(CC#N)(n4cc(-c5ncnc6[nH]ccc56)cn4)C3)CC2)nc(C(F)(F)F)n1` [Example 370, {1-(1-{[6-[(dimethylamino)methyl]-2-(trifluoromethyl)pyrimidin-4-yl]carbonyl}piperidin-4-yl)-3-[4-(7H-pyrrolo[2,3-d]pyrimidin-4-yl)-1H-pyrazol-1-yl]azetidin-3-yl}acetonitrile], 55.
The value for `CCN(C)Cc1cc(C(=O)N2CCC(N3CC(CC#N)(n4cc(-c5ncnc6[nH]ccc56)cn4)C3)CC2)nc(C(F)(F)F)n1` [Example 374] was 50.
